In patent US8436159B2, “Glyphosate resistant class I 5-endolpyruvylshikimate-3-phosphate synthase (EPSPS)” (Monsanto Technology LLC, priority 2003, dated 2013):
Where a chain is given by its changes, count along the chain named.

What was measured:
[1] = molecular target: T1, maize (Zea mays) class I EPSPS variant TIPV (T102I, P106V), pMON42482 (Zea mays, UniProt O24566, P106V/T102I); experiment: EPSPS steady-state kinetics, TIPV variant; assay type: biochemical
T1 construct: pMON42482
T1 sequence (O24566 1-444 T102I/P106V): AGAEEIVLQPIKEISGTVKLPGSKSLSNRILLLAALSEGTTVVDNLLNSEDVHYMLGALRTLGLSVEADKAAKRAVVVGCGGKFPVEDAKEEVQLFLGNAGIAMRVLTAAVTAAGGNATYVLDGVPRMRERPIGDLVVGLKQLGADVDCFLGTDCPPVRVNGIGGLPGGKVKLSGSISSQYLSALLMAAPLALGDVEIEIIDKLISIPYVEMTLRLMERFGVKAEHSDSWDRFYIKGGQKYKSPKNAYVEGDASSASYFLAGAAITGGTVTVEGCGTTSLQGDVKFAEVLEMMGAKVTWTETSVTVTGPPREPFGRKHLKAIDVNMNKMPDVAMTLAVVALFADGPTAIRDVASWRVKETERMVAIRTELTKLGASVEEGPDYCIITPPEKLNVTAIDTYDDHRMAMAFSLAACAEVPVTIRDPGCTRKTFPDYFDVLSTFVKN
Source text: (§1) The double variants of the present invention were made using pMON58452 (FIG. 5) as the template. This pMON58452 EPSPS gene template contains the maize EPSPS double variant T102I, P106T (TIPT) that was constructed by mutagenesis of pMON70467 with the mutagenesis primers mEmut-9-U and mEmut-10-L. The various mutagenesis primer sequences were designed and then were synthesized by Invitrogen Corp., Custom Primers and used in combination in a PCR to create the variant EPSPS coding sequences. The PCR was set up in a 50 μl reaction in the following manner: dH2O 38 μl; 2 mM dNTP 1 μL; 10× buffer 5 μL; pMON58452 1 μL (10 ng); primer-U 2 μL; primer-L 2 μL; pfu Turbo enzyme 1 μL. PCR was carried out on a MJ Research PTC-200 thermal cycler using the following program: Step 1—94° C. for 30 seconds; Step 2—94° C. for 30 seconds; Step 3—55° C. for 1 minute; Step 4—68° C. for 14 minute; Step 5—go to step 2, 16 times; Step 6—End. At the end of the PCR, 1 μl of the restriction enzyme DpnI was added to each 50 μl of PCR reaction and the mixture was incubated at 37° C. for 1 hour. […]

[2] = molecular target: T2, maize (Zea mays) class I EPSPS variant TIPM (T102I, P106M), pMON42484 (Zea mays, UniProt O24566, P106M/T102I); experiment: EPSPS steady-state kinetics, TIPM variant; assay type: biochemical
T2 construct: pMON42484
T2 sequence (O24566 1-444 T102I/P106M): T1 sequence (O24566 1-444 T102I/P106V) with V106M
Source text: as §1

O=C(O)CNCP(=O)(O)O [glyphosate, N-phosphonomethylglycine]
Ki [1]: 1.6 ± 0.4 mM
Ki [2]: 37.2 ± 1.5 mM
